Source: patent US9296775B2, “Pyrazole compounds” (Eli Lilly and Company, priority 2012, dated 2016)

Legend:
[1] = test system: male Sprague Dawley rats with STZ-induced diabetes; assay: Mixed meal tolerance test in male rats with streptozotocin induced diabetes; assay type: in vivo, rat; conditions: for Glucose Values 0 min. / Glucose Values 20 min. / Glucose Values 40 min. / Glucose Values 60 min. / Glucose Values 120 min. / Baseline Adjusted AUC: mean ± SE; for Baseline Adjusted AUC: glucose AUC in MTT
Protocol: Rats which have been administered streptozotocin (STZ) develop diabetes mellitus. Agents which modulate glucose levels in these animals are believed to be useful in the treatment of diabetes in humans.
The test compound is formulated by adding a vehicle of 1% hydroxyethylcellulose (HEC), 0.25% Tween® 80 w/ antifoam 0.05% to preweighed test compound to make a 2.5 mg/ml solution. The mixture is probe sonicated for approximately 30 seconds. The resulting solution is used as a stock solution, from which the lower concentration dose solutions are prepared by dilution with the vehicle. STZ, 45 mg/kg, is formulated by dissolving in 0.1M Citrate buffer in 3 ml aliquots and stored in the dark on ice, when not being administered. A high fat content mixed meal (Bio-Serv® Rodent Diet F3282 High Fat) comprising Fat Calories (60%), Carbohydrate Calories (26%) and Protein Calories (15%) is utilized. Single housed Sprague Dawley rats are allowed to acclimate for a period of 3 to 7 days.
In an effort to ensure that the animals have not recently fed, STZ is administered in the afternoon, approximately six hours into the light cycle (lights on 6 am, lights off 6 pm). The animals are anesthetized with isoflurane and STZ is delivered via tail vein injection. Once animals regain consciousness, they are returned to housing and allowed to recover for 7 days.
On the two days immediately prior to the meal tolerance test (MTT) all rats are given a small amount (2-4 g) of the F3282 diet, so they became acclimated to it prior to receiving it during the experiment. On the evening before the experiment, the rats are moved into clean cages and their food is removed. The following morning animals are weighed and a blood sample is taken by tail snip for glucose measurement (Abbott AlphaTrak glucometers: code 29). Animals are grouped n=6 based on fasted body weight and glucose. Thirty minutes after the test compound is orally administered, two glucose measurements are collected. Then a five gram pellet of Bio-Serv® diet 3282 is given. After 20 minutes remaining food is taken away and weighed. Blood samples are taken at 20, 40, 60 and 120 minutes for glucose measurement.

[2] = test system: normal glycemic C57Bl/6 mouse; assay: Oral glucose tolerance test (OGTT); assay type: in vivo; conditions: for Glucose 0 Minute: 3 h before dextrose 3 g/kg; for Glucose 0 Minute / Glucose 20 Minute / Glucose 40 Minute / Glucose 60 Minute / Glucose 120 Minute / Baseline Adjusted AUC: mean ± SE; for Glucose 20 Minute: 20 min after dextrose; for Glucose 40 Minute: 40 min after dextrose; for Glucose 60 Minute: 60 min after dextrose; for Glucose 120 Minute: 120 min after dextrose; for Baseline Adjusted AUC: glucose AUC during OGTT
Protocol: The test compound is formulated by adding a vehicle of 1% hydroxyethylcellulose, 0.25% Tween® 80 w/ antifoam 0.05% to preweighed test compound to make a 1 mg/ml solution. The mixture is probe sonicated for approximately 30 seconds. The resulting solution is used as a stock solution from which the lower concentration dose solutions are prepared by dilution with the vehicle.
Single housed C57Bl/6 mice are fasted overnight by removing access to food the late afternoon before test day. The following morning, the mice are weighed and a single fasting blood sample is taken by tail snip to measure glucose by glucometer (Roche AccuChek). Study groups (n=5) are determined based on fasted blood glucose and comprise preferably animals in the range of 80-100 mg/dl glucose.
After grouping, the first mouse is orally gavaged with 10 ml/kg test compound preparation and a timer started. Each subsequent animal is dosed a minute and a half apart. Three hours after the first compound treatment is started, a baseline blood sample is taken for measuring glucose (from the first animal, via tail snip). The animal is then immediately given an oral dose of 50% dextrose (Hospira) at 3 g/kg. Blood samples are taken for glucose, exactly a minute and half apart, by tail vein so that blood is collected in each animal at 20, 40, 60 and 120 minutes after the dextrose dose.

[3] = result in words, Example 1 10 and 30 mg/kg, Acarbose 60 mg/kg

C[C@H]1O[C@H](O[C@H]2[C@H](O)[C@@H](O)[C@@H](O[C@H]3[C@H](O)[C@@H](O)C(O)O[C@@H]3CO)O[C@@H]2CO)[C@H](O)[C@@H](O)[C@@H]1N[C@H]1C=C(CO)[C@@H](O)[C@H](O)[C@H]1O (stereo partly shown) [Acarbose, reference compound]
Glucose Values 0 min. ([1]; 60 mg/kg oral): 124 ± 16.9 mg/dL | Glucose Values 20 min. ([1]; 60 mg/kg oral): 181 ± 22.8 mg/dL | Glucose Values 40 min. ([1]; 60 mg/kg oral): 301.3 ± 51.2 mg/dL | Glucose Values 60 min. ([1]; 60 mg/kg oral): 371.5 ± 63.9 mg/dL | Glucose Values 120 min. ([1]; 60 mg/kg oral): 433.7 ± 83 mg/dL | Baseline Adjusted AUC ([1]; 60 mg/kg oral): 23877 ± 4649 | glucose baseline adjusted AUCs in the MTT [1, 3]: significantly decreases | glucose in the MTT compared to the vehicle controls [1, 3]: did not significantly decrease

Cc1cc(/C=C/CCN2CCCC3(CCNCC3)C2)ccc1Cc1c(O[C@@H]2O[C@H](CO)[C@@H](O)[C@H](O)[C@H]2O)n[nH]c1C(C)C [Example 1, 4-{4-[(1E)-4-(2,9-diazaspiro[5.5]undec-2-yl)but-1-en-1-yl]-2-methylbenzyl}-5-(propan-2-yl)-1H-pyrazol-3-yl beta-D-glucopyranoside]
Glucose 0 Minute ([2]; 0.3 mg/kg oral): 78 ± 4.2 mg/dL | Glucose 20 Minute ([2]; 0.3 mg/kg oral): 185 ± 13.7 mg/dL | Glucose 40 Minute ([2]; 0.3 mg/kg oral): 197 ± 14.7 mg/dL | Glucose 60 Minute ([2]; 0.3 mg/kg oral): 164 ± 6.3 mg/dL | Glucose 120 Minute ([2]; 0.3 mg/kg oral): 121 ± 11.8 mg/dL | Baseline Adjusted AUC ([2]; 0.3 mg/kg oral): 5400 ± 519^ | Glucose 0 Minute ([2]; 1 mg/kg oral): 76 ± 3.3 mg/dL | Glucose 20 Minute ([2]; 1 mg/kg oral): 147 ± 8.3 mg/dL | Glucose 40 Minute ([2]; 1 mg/kg oral): 171 ± 11.1 mg/dL | Glucose 60 Minute ([2]; 1 mg/kg oral): 162 ± 5.8 mg/dL | Glucose 120 Minute ([2]; 1 mg/kg oral): 109 ± 7.3 mg/dL | Baseline Adjusted AUC ([2]; 1 mg/kg oral): 4158 ± 374^ | Glucose 0 Minute ([2]; 3 mg/kg oral): 72 ± 2.6 mg/dL | Glucose 20 Minute ([2]; 3 mg/kg oral): 133 ± 7.1 mg/dL | Glucose 40 Minute ([2]; 3 mg/kg oral): 150 ± 7.5 mg/dL | Glucose 60 Minute ([2]; 3 mg/kg oral): 155 ± 7.2 mg/dL | Glucose 120 Minute ([2]; 3 mg/kg oral): 115 ± 10 mg/dL | Baseline Adjusted AUC ([2]; 3 mg/kg oral): 3606 ± 421 | Glucose 0 Minute ([2]; 10 mg/kg oral): 78 ± 5.4 mg/dL | Glucose 20 Minute ([2]; 10 mg/kg oral): 124 ± 1.2 mg/dL | Glucose 40 Minute ([2]; 10 mg/kg oral): 137 ± 5.4 mg/dL | Glucose 60 Minute ([2]; 10 mg/kg oral): 138 ± 6.1 mg/dL | Glucose 120 Minute ([2]; 10 mg/kg oral): 114 ± 4.3 mg/dL | Baseline Adjusted AUC ([2]; 10 mg/kg oral): 2693 ± 309 | average maximum concentration of plasma glucose (Cmax) during the OGTT ([2]; 0.3-10 mg/kg, result in words): dose dependently decreases | average time that it takes for glucose to reach maximum concentration (Tmax) ([2]; 0.3-10 mg/kg, result in words): increasing | Glucose Values 0 min. ([1]; 10 mg/kg oral): 139 ± 16.1 mg/dL | Glucose Values 20 min. ([1]; 10 mg/kg oral): 221.2 ± 26.3 mg/dL | Glucose Values 40 min. ([1]; 10 mg/kg oral): 268.7 ± 29 mg/dL | Glucose Values 60 min. ([1]; 10 mg/kg oral): 330 ± 36.7 mg/dL | Glucose Values 120 min. ([1]; 10 mg/kg oral): 490.8 ± 39.2 mg/dL | Baseline Adjusted AUC ([1]; 10 mg/kg oral): 22432 ± 2234 | Glucose Values 0 min. ([1]; 30 mg/kg oral): 137.4 ± 26.9 mg/dL | Glucose Values 20 min. ([1]; 30 mg/kg oral): 195.4 ± 44.8 mg/dL | Glucose Values 40 min. ([1]; 30 mg/kg oral): 232 ± 52.2 mg/dL | Glucose Values 60 min. ([1]; 30 mg/kg oral): 263.9 ± 62.2 mg/dL | Glucose Values 120 min. ([1]; 30 mg/kg oral): 355.3 ± 73.2 mg/dL | Baseline Adjusted AUC ([1]; 30 mg/kg oral): 14649 ± 3673
